Patent US11571423B2, “Small molecule modulators of human sting” (Curadev Pharma Limited, priority 2017, dated 2023)
Like-named read-outs stand apart in the source and are kept apart here.

Experiments:
hSTING(R232) = hSTING(R232) (Homo sapiens, UniProt Q86WV6, H232R); experiment: Luciferase reporter assay in HEK293T-hSTING-Luciferase cells, R232 (wild type) human STING; format: cell-based; settings: 20 hr stimulation, read-out: R232 human activity (EC50 range)
How it was run: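 Clonal HEK293T cells stably expressing STING from a pUNO-1 plasmid plus an ISRE/ISG54-driven secreted luciferase reporter; 5×10^5 cells stimulated with compound for 20 hr. Supernatant luciferase read by luminescence, giving fold-induction over baseline and EC50.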

[1] = target: cynomolgus monkey STING protein (Macaca fascicularis, UniProt A0A2R3XZA6); experiment: Luciferase reporter assay, cynomolgus monkey STING overexpressed in HEK293T cells; format: cell-based
Sequence of cynomolgus monkey STING protein (A0A2R3XZA6 entry or part of it): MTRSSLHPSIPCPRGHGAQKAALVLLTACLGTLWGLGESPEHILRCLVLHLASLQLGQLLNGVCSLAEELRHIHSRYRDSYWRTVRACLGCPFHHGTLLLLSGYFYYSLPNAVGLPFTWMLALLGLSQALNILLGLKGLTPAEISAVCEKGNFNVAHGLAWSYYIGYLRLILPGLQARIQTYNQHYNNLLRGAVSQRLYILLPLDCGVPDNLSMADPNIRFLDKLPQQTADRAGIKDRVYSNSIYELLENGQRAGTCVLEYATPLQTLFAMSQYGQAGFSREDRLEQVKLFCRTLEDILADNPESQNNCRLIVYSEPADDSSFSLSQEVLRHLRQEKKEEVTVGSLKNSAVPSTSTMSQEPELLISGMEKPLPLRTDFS
Description: 5×10^5 clonally selected HEK293T-hSTING-Luciferase cells were seeded in 384-well plates in growth medium and stimulated with novel compounds. After 20 hr of stimulation supernatant were removed and secretary reporter gene activity were measured using the Quanti-Luc detection system (Invivogen) on a Spectramax i3X luminometer.
In the tables below, EC50 value ranges for exemplary compounds are given.
Selected compounds were further tested against cynomolgus monkey STING protein overexpressed in HEK293T cells.

[2] = cynomolgus monkey STING overexpressed in HEK293T cells, read-out: Cynomolgus monkey STING activity (EC50 range)

Sequence of hSTING(R232) (Q86WV6 whole entry H232R): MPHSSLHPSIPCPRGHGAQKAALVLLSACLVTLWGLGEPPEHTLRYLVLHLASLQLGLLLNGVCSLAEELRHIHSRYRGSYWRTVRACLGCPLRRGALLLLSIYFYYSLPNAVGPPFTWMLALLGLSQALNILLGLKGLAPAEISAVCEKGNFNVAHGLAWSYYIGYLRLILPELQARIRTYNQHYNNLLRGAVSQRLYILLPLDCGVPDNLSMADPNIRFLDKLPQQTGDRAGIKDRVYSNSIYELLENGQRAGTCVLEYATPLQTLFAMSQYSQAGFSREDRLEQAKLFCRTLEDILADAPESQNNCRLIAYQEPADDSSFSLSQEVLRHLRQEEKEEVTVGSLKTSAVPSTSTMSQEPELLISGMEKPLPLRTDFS

EC50 (hSTING(R232)) [nM] | EC50 [1, 2] [nM] | Compound | EC50 [1] [nM]
< 1000 | < 1000 | COc1cc(F)c(CN2C(=O)N(C)C(C)c3ccc(C(=O)NCc4c(F)cc(F)cc4F)cc32)c(F)c1 (centres unmarked) [Example 165, 1-(2,6-difluoro-4-methoxybenzyl)-3,4-dimethyl-2-oxo-N-(2,4,6-trifluorobenzyl)-1,2,3,4-tetrahydroquinazoline-7-carboxamide] | 
< 1000 | < 1000 | CC1c2ccc(C(=O)NCc3c(F)cc(F)cc3F)cc2N(Cc2ccccc2F)C(=O)N1C (centres unmarked) [Example 202, 1-(2-fluorobenzyl)-3,4-dimethyl-2-oxo-N-(2,4,6-trifluorobenzyl)-1,2,3,4-tetrahydroquinazoline-7-carboxamide] | 
< 1000 | < 1000 | CC1c2ccc(C(=O)NCc3c(F)cc(F)cc3F)cc2N(Cc2cc(O)ccc2F)C(=O)N1C (centres unmarked) [Example 231, 1-(2-fluoro-5-hydroxybenzyl)-3,4-dimethyl-2-oxo-N-(2,4,6-trifluorobenzyl)-1,2,3,4-tetrahydroquinazoline-7-carboxamide] | 
< 1000 | < 1000 | COc1ccc(F)c(CN2C(=O)N(C)[C@@H](C)c3ccc(C(=O)NCc4c(F)cc(F)cc4F)cc32)c1F [Example 258, (S)-1-(2,6-difluoro-3-methoxybenzyl)-3,4-dimethyl-2-oxo-N-(2,4,6-trifluorobenzyl)-1,2,3,4-tetrahydroquinazoline-7-carboxamide] | 
< 1000 | < 1000 | C[C@H]1c2ccc(C(=O)NCc3c(F)cc(F)cc3F)cc2N(Cc2c(F)cc(OCC(O)CO)cc2F)C(=O)N1C (stereo partly drawn) [Example 145, (4S)-1-(4-(2,3-Dihydroxypropoxy)-2,6-difluorobenzyl)-3,4-dimethyl-2-oxo-N-(2,4,6-trifluorobenzyl)-1,2,3,4-tetrahydroquinazoline-7-carboxamide] | 
< 1000 | < 1000 | CC1c2ccc(C(=O)NCc3c(F)cc(F)cc3F)cc2N(Cc2c(F)cccc2C(F)(F)F)C(=O)N1C (centres unmarked) [Example 209, 1-(2-fluoro-6-(trifluoromethyl)benzyl)-3,4-dimethyl-2-oxo-N-(2,4,6-trifluorobenzyl)-1,2,3,4-tetrahydroquinazoline-7-carboxamide] | 
< 1000 | 1000 to 10000 | CC(O)c1ccc(F)c(CN2C(=O)N(C)[C@@H](C)c3ccc(C(=O)NCc4c(F)cc(F)cc4F)cc32)c1F (stereo partly drawn) [Example 289, (4S)-1-(2,6-difluoro-3-(1-hydroxyethyl)benzyl)-3,4-dimethyl-2-oxo-N-(2,4,6-trifluorobenzyl)-1,2,3,4-tetrahydroquinazoline-7-carboxamide] | 
< 1000 | < 1000 | Cc1ncc(Cl)c(CN2C(=O)N(C)C(C)c3ccc(C(=O)NCc4c(F)cc(F)cc4F)cc32)c1F (centres unmarked) [Example 176, 1-((5-chloro-3-fluoro-2-methylpyridin-4-yl)methyl)-3,4-dimethyl-2-oxo-N-(2,4,6-trifluorobenzyl)-1,2,3,4-tetrahydroquinazoline-7-carboxamide] | 
< 1000 | < 1000 | C[C@H]1c2ccc(C(=O)NCc3c(F)cc(F)cc3F)cc2N(Cc2c(F)cc(N)cc2F)C(=O)N1C [Example 286, (S)-1-(4-amino-2,6-difluorobenzyl)-3,4-dimethyl-2-oxo-N-(2,4,6-trifluorobenzyl)-1,2,3,4-tetrahydroquinazoline-7-carboxamide] | 
< 1000 | < 1000 | C[C@H]1c2ccc(C(=O)NCc3c(F)cc(F)cc3F)cc2N(Cc2c(F)ccc(OCCOP(=O)(O)O)c2F)C(=O)N1C [Example 103, (S)-2-(3-((3,4-dimethyl-2-oxo-7-((2,4,6-trifluorobenzyl)carbamoyl)-3,4-dihydroquinazolin-1(2H)-yl)methyl)-2,4-difluorophenoxy)ethyl dihydrogen phosphate] | 
< 1000 | < 1000 | C[C@H]1c2ccc(C(=O)NCc3c(F)cc(F)cc3F)cc2N(Cc2c(F)cc(OCCOP(=O)(O)O)cc2F)C(=O)N1C [Example 97, (S)-2-(4-((3,4-dimethyl-2-oxo-7-((2,4,6-trifluorobenzyl)carbamoyl)-3,4-dihydroquinazolin-1(2H)-yl)methyl)-3,5-difluorophenoxy)ethyl dihydrogen phosphate] | 
< 1000 | 1000 to 10000 | C[C@H]1c2ccc(C(=O)NCc3c(F)cc(F)cc3F)cc2N(Cc2c(OCCO)ccc(F)c2F)C(=O)N1C [Example 254, (S)-1-(2,3-difluoro-6-(2-hydroxyethoxy)benzyl)-3,4-dimethyl-2-oxo-N-(2,4,6-trifluorobenzyl)-1,2,3,4-tetrahydroquinazoline-7-carboxamide] | 
< 1000 | < 1000 | Cc1cccc(CN2C(=O)N(C)[C@@H](C)c3ccc(C(=O)NCc4c(F)cc(F)cc4F)cc32)c1F [Example 168, (S)-1-(2-fluoro-3-methylbenzyl)-3,4-dimethyl-2-oxo-N-(2,4,6-trifluorobenzyl)-1,2,3,4-tetrahydroquinazoline-7-carboxamide] | 
< 1000 | > 10000 | C[C@H]1c2ccc(C(=O)NCc3c(F)cc(F)cc3F)cc2N(Cc2c(F)ccc(OCCOP(=O)(O)O)c2Cl)C(=O)N1C [Example 95, (S)-2-(2-chloro-3-((3,4-dimethyl-2-oxo-7-((2,4,6-trifluorobenzyl)carbamoyl)-3,4-dihydroquinazolin-1(2H)-yl)methyl)-4-fluorophenoxy)ethyl dihydrogen phosphate] | 
< 1000 | < 1000 | C[C@H]1c2ccc(C(=O)NCc3c(F)cc(F)cc3F)cc2N(Cc2c(F)ccc(OCOP(=O)(O)O)c2Cl)C(=O)N1C [Example 90, (S)-(2-Chloro-3-((3,4-dimethyl-2-oxo-7-((2,4,6-trifluorobenzyl)carbamoyl)-3,4-dihydroquinazolin-1(2H)-yl)methyl)-4-fluorophenoxy)methyl dihydrogen phosphate] | 
< 1000 |  | C[C@H]1c2ccc(C(=O)NCc3c(F)cc(F)cc3F)cc2N(Cc2c(OCC(=O)O)ccc(F)c2F)C(=O)N1C [Example 244, (S)-2-(2-((3,4-dimethyl-2-oxo-7-((2,4,6-trifluorobenzyl)carbamoyl)-3,4-dihydroquinazolin-1(2H)-yl)methyl)-3,4-difluorophenoxy)acetic acid] | 
1000 to 10000 |  | C[C@@H]1c2ccc(C(=O)NCc3c(F)cc(F)cc3F)cc2N(Cc2c(F)cccc2Cl)C(=O)N1C (single isomer, unassigned) [Example 75] | 
1000 to 10000 |  | CN1Cc2ccc(C(=O)NCc3c(F)cc(F)cc3F)cc2N(Cc2ccc(F)cc2Cl)C1=O [Example 17, 1-(2-chloro-4-fluorobenzyl)-3-methyl-2-oxo-N-(2,4,6-trifluorobenzyl)-1,2,3,4-tetrahydroquinazoline-7-carboxamide] | 
1000 to 10000 |  | Cc1cc(CN2C(=O)N(C)Cc3ccc(C(=O)NCc4c(F)cc(F)cc4F)cc32)no1 [Example 33, 3-methyl-1-((5-methylisoxazol-3-yl)methyl)-2-oxo-N-(2,4,6-trifluorobenzyl)-1,2,3,4-tetrahydroquinazoline-7-carboxamide] | 
< 1000 |  | Cc1cc(CN2C(=O)N(C)C(C)c3ccc(C(=O)NCc4c(F)cc(F)cc4F)cc32)ccn1 (centres unmarked) [Example 198, 3,4-dimethyl-1-((2-methylpyridin-4-yl)methyl)-2-oxo-N-(2,4,6-trifluorobenzyl)-1,2,3,4-tetrahydroquinazoline-7-carboxamide] | 
> 10000 |  | CC1c2ccc(C(=O)NCc3c(F)cc(F)cc3F)cc2N(Cc2cc(OCC(=O)O)ccc2F)C(=O)N1C (centres unmarked) [Example 229, 2-(3-((3,4-dimethyl-2-oxo-7-((2,4,6-trifluorobenzyl)carbamoyl)-3,4-dihydroquinazolin-1(2H)-yl)methyl)-4-fluorophenoxy)acetic acid] | 
> 10000 |  | CN1Cc2ccc(C(=O)NCc3ccc4cnn(C)c4c3)cc2N(Cc2c(F)cccc2Cl)C1=O [Example 51, 1-(2-chloro-6-fluorobenzyl)-3-methyl-N-((1-methyl-1H-indazol-6-yl)methyl)-2-oxo-1,2,3,4-tetrahydroquinazoline-7-carboxamide] | 
> 10000 |  | O=C(NCc1c(F)cc(F)cc1F)c1ccc2c(c1)N(Cc1c(F)cccc1Cl)C(=O)N(OCc1ccccc1)C2 [Example 68, 3-(benzyloxy)-1-(2-chloro-6-fluorobenzyl)-2-oxo-N-(2,4,6-trifluorobenzyl)-1,2,3,4-tetrahydroquinazoline-7-carboxamide] | 

Compound | EC50 (hSTING(R232)) [nM] | EC50 [1, 2] [nM] | EC50 [1] [nM]
C[C@H]1c2ccc(C(=O)NCc3c(F)cc(F)cc3F)cc2N(Cc2c(F)ccc(OP(=O)(O)O)c2Cl)C(=O)N1C [Example 89, (S)-2-Chloro-3-((3,4-dimethyl-2-oxo-7-((2,4,6-trifluorobenzyl)carbamoyl)-3,4-dihydroquinazolin-1(2H)-yl)methyl-4-fluorophenyldihydrogen phosphate] | < 1000 | < 1000 | 
C[C@H]1c2ccc(C(=O)NCc3c(F)cc(OP(=O)(O)O)cc3F)cc2N(Cc2c(F)cccc2Cl)C(=O)N1C [Example 101, (S)-4-((1-(2-chloro-6-fluorobenzyl)-3,4-dimethyl-2-oxo-1,2,3,4-tetrahydroqinazoline-7-carboxamido)methyl)-3,5-difluorophenyl dihydrogen phosphate] | 1000 to 10000 | 1000 to 10000 | 
C[C@H]1c2ccc(C(=O)NCc3c(F)cc(F)cc3F)cc2N(Cc2c(F)cc(OC(=O)N(C)CCC(=O)OCc3ccccc3)cc2F)C(=O)N1C [Example 86, (S)-Benzyl-3-(((4-((3,4-dimethyl-2-oxo-7-((2,4,6-trifluorobenzyl)carbamoyl)-3,4-dihydroquinazolin-1(2H)-yl)methyl)-3,5-difluorophenoxy)carbonyl)(methyl)amino)propanoate] | 1000 to 10000 |  | 1000 to 10000
